Consider three compounds from US20250032476A1, “ALPHA-2A ADRENERGIC RECEPTOR MODULATORS AND USES THEREOF” (The Regents of the University of California, priority 2021, published 2025).

Data set [1] has as its system imidazoline-2 receptor (I2R). Kind of data set: I2R binding (Eurofins Cerep). As to conditions: tested at 500 nM.
For data set [2], the target named is T1, human α2AAR (Homo sapiens (Human), UniProt P08913). Kind of data set: β-arrestin-2 recruitment, BRET biosensor assay in HEK293T cells. For orientation: Recruitment of arrestin is a read-out of receptor activation apart from second messengers.
T1 sequence (P08913 whole entry): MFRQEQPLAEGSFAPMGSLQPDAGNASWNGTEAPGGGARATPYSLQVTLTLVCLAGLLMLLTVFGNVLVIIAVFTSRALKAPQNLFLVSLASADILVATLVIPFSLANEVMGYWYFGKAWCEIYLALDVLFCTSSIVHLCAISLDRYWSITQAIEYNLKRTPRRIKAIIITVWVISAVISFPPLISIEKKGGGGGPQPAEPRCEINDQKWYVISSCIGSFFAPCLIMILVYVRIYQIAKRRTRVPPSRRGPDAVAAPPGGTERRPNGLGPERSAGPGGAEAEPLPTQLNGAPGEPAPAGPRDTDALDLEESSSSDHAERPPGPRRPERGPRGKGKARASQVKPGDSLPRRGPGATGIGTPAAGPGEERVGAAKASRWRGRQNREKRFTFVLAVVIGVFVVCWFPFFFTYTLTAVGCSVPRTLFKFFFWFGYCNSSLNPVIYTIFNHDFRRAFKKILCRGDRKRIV
Protocol: (§2) Bioluminescense resonance energy transfer. G protein mediated activation of human α2AAR and D2long was monitored with Gαi1-RLucII (71, 72) together with Gβ1 and Gγ1-GFP10. Arrestin recruitment was performed by enhanced bystander BRET using CAAX-rGFP and β-arrestin-2-RLucII as biosensors (all biosensors are provided from M. Bouvier, Université de Montréal, Canada) (71, 73) in the presence of GRK2 as described (66, 74). In brief, HEK293T cells were transfected with a total amount of 3.3 μg DNA per 10^6 cells using linear polyethyleneimine (PEI, Polysciences, 3:1 PEI:DNA ratio) and transferred into 96-well half-area plates (Greiner, Frickenhausen, Germany) at a density of 10,000 cells per well and incubated for 48 hrs. Medium was exchanged with PBS (Hank's balanced salt solution) and cells were stimulated with ligands at 37° C. for 10 min for Gαi stimulation or arrestin recruitment, respectively.
The subject of data set [3] is SNI mice. Kind of data set: Spared-nerve injury (SNI) model of neuropathic pain, von Frey mechanical thresholds. Format: in vivo. The protocol: Spared-nerve injury (SNI) model of neuropathic pain. Under isoflurane anesthesia, two of the three branches of the sciatic nerve were ligated and transected distally, leaving the sural nerve intact. Behavior was tested 7 to 14 days after injury and in situ hybridization was performed one week post-injury.

In data set [4] the target is T1, human α2AAR. Put plainly: Gαi G protein activation, BRET biosensor assay in HEK293T cells.
Protocol: as §2
Data set [5] has as its target T2, ALPHA-2A ADRENERGIC RECEPTOR (Homo sapiens (Human), UniProt P08913). Kind of data set: Arrestin recruitment. Format: cell-based. Conditions: Tables 7-9.
Data set [6] can be described thus: Pharmacokinetics in mice (plasma, brain, CSF). Format: in vivo. Here is the method: Pharmacokinetics. Pharmacokinetic experiments were performed by Bienta (Enamine Biology Services) in accordance with Enamine pharmacokinetic study protocols and Institutional Animal Care and Use Guidelines (protocol number 1-2/2020). […] In each compound study, nine time points (5, 15, 30, 60, 120, 240, 360, 480 and 1440 min) were collected, each of the time point treatment group included 3 animals. There was also a control group of one animal. In the ‘9087, ‘7075, ‘4622 studies, male C57BL/6N mice were used, for PS75 CD-1 mice, and for ‘2998 male Balb/cAnN mice. For all compound studies the animals were randomly assigned to the treatment groups before the pharmacokinetic study; all animals were fasted for 4 h before dosing. For injections, ‘9087 was dissolved in Captisol—water (40%:60%, w/v), ‘4622 was dissolved in a 20% Kolliphor HS—physiological saline solution, and ‘7075, PS75, and ‘2998 were dissolved in a 20% 2-HPBCD—aqueous solution. The batches of working formulations were prepared 10 minutes prior to the in vivo study.
Mice were injected i.p. with 2,2,2-tribromoethanol at 150 mg/kg prior to drawing CSF and blood. CSF was collected under a stereomicroscope from cisterna magna using 1 mL syringes. Blood collection was performed from the orbital sinus in microtainers containing K3EDTA. Animals were sacrificed by cervical dislocation after the blood samples collection. Blood samples were centrifuged 10 min at 3000 rpm. Brain samples (right lobe) were weighed and transferred into 1.5 ml tubes. All samples were immediately processed, flash-frozen and stored at −70° C. until subsequent analysis.
Plasma samples (40 μL) were mixed with 200 μL of internal standard (IS) solution. After mixing by pipetting and centrifuging for 4 min at 6000 rpm, 4 μL of each supernatant was injected into the LC-MS/MS system. Solutions of internal standards were used to quantify compounds in the plasma samples. […] After this, the samples were centrifuged for 4 min at 14,000 rpm, and supernatant was injected into LC-MS/MS system. CSF samples (2 μL) were mixed with 40 μL of an internal stock solution. After mixing by pipetting and centrifuging for 4 min at 6,000 rpm, 5 μL of each supernatant was injected into LC-MS/MS system.
(§1) Analyses of plasma, brain and CSF samples were conducted at Enamine/Bienta. The concentrations of compounds in plasma and brain samples were determined using high performance liquid chromatography/tandem mass spectrometry (HPLC-MS/MS). Data acquisition and system control was performed using Analyst 1.5.2 software (AB Sciex, Canada). […] Pharmacokinetic data analysis was performed using noncompartmental, bolus injection or extravascular input analysis models in WinNonlin 5.2 (PharSight).
Mice were injected i.p. with 2,2,2-tribromoethanol at 150 mg/kg prior to drawing CSF and blood. CSF was collected under a stereomicroscope from cisterna magna using 1 mL syringes. Blood collection was performed from the orbital sinus in microtainers containing K3EDTA. Animals were sacrificed by cervical dislocation after the blood samples collection. Blood samples were centrifuged 10 min at 3000 rpm. Brain samples (right lobe) were weighed and transferred into 1.5 mL tubes. All samples were immediately processed, flash-frozen and stored at −70° C. until subsequent analysis.
as §1
Additional pharmacokinetic experiments were performed by Sai Life Sciences (Hyderabad, India) in accordance with the Sai Study Protocol SAIDMPK/PK-22-04-0340. […] Testing was done in C57BL/6 mice.

The subject of data set [7] is CFA mice. Put plainly: Complete Freund's Adjuvant (CFA) inflammatory pain model, Hargreaves test. Conditions: mouse, in vivo.
Protocol: The CFA model of chronic inflammation was induced as described previously (96). Briefly, CFA (Sigma) was diluted 1:1 with saline and vortexed for 30 minutes. When fully suspended, we injected 20 μL of CFA into one hindpaw. Heat thresholds were measured before the injection (baseline) and 3 days after using the Hargreaves test.
The CFA model of chronic inflammation was induced as described previously (100). Briefly, CFA (Sigma) was diluted 1:1 with saline and vortexed for 30 minutes. When fully suspended, we injected 20 μL of CFA into one hindpaw. Heat thresholds were measured before the injection (baseline) and 3 days after using the Hargreaves test.
For data set [8], the target named is T1, human α2AAR. Kind of data set: Radioligand competition binding to human α2AAR (HEK293T membranes, [3H]RX82,1002). As to conditions: human α2AAR; mean ± s.e.m.; read-out: Ki for α2AAR.
In data set [9] the target is T2, ALPHA-2A ADRENERGIC RECEPTOR
Kind of data set: Gi recruitment (G protein). Format: cell-based. As to conditions: Gi recruitment, Tables 7-9.

A short description of data set [10]: Body weight measurement over 48 hours. Format: in vivo, mice. As to conditions: ‘9087 5, 10 or 20 mg/kg; dexmedetomidine 30 μg/kg.
Data set [11] has as its system mice. Put plainly: Rotarod motor test (motor impairment and sedation). Format: in vivo. Conditions: 60 μg/kg. Background: The rotarod test checks motor coordination on a turning rod.
In data set [12] the target is α2AAR-Y431^7.43A/F (Homo sapiens, UniProt P08913, Y431A). Put plainly: Gi activation (BRET) at α2AAR Y431^7.43 mutants. Format: cell-based. Here is the method:
Investigating the sensitivity of selected ligands to the receptor mutants α2AAR-D128^3.32A, α2AAR-D128^3.32T, α2AAR-D128^3.32L, α2AAR-S215^5.42A, α2AAR-Y409^6.55A, α2AAR-Y409^6.55T, α2AAR-Y409^6.55F, α2AAR-F427^7.39F, α2AAR-Y431^7.43A, and α2AAR-Y431^7.43F was determined by monitored G protein stimulation as described above transfecting the appropriate receptor together with Gαi1-RLucII and Gβ1/Gγ1-GFP10. […] Three to ten experiments were done in duplicate.
The sensitivity of selected ligands to the receptor mutants α2AAR-D128^3.32A, α2AAR-D128^3.32T, α2AAR-D128^3.32L, α2AAR-S215^5.42A, α2AAR-Y409^6.55A, α2AAR-Y409^6.55T, α2AAR-Y409^6.55F, α2AAR-F427^7.39F, α2AAR-Y431^7.43A, and α2AAR-Y431^7.43F was monitored by G protein activation as described above transfecting the appropriate receptor together with Gαi1-RLucII and Gβ1/Gγ2-GFP10. […] Similarly, the effect of the α2AAR-D128^3.32A, α2AAR-S215^5.42A, α2AAR-Y409^6.55A, α2AAR-Y409^6.55F, α2AAR-F427^7.39F, α2AAR-Y431^7.43A, and α2AAR-Y431^7.43F mutations on arrestin recruitment was evaluated as described above transfecting the appropriate receptor together with CAAX-rGFP, GRK2 and β-arrestin-2-RLucII. Data was analyzed as ligand induced changes in BRET compared to vehicle (deltaBRET). Three to seven experiments were done in duplicate.
A general note: BRET reads energy transfer from a luciferase to a nearby fluorophore.

For data set [13], the system named is mice. Kind of data set: Constipation assay (fecal pellets over 6 hours). Conditions: i.p.; morphine 10 mg/kg, dexmedetomidine 30 μg/kg, ‘9087 5 mg/kg; versus vehicle.
Where [14] appears, read: mouse, plasma, ip, I.P. 10 mg/kg.

The structures appear in SMILES notation. Entries after “also recorded” stand apart in the source; their conditions may differ. Read-outs that look alike come from different tables or passages of the source.

T2 sequence (P08913 whole entry): as above

As for `Cc1cc2[nH]ncc2cc1-c1ccc(N)nc1` [Compound 2998, 5-(6-Methyl-1H-indazol-5-yl)pyridin-2-amine], the “I2R binding, single point radioligand experiment” value in data set [1] is listed as “no binding was seen”. In addition, the EC50 stood at 98 ± 32 nM in data set [2]; 73 ± 14 nM in [4] (Gαi EC50, BRET biosensor, HEK293T, human α2AAR); 89 nM in [9] (read-out: G protein EC50). Further, the Emax in [2] (HEK-293T, read-out: β-arrestin-2 Emax) is 8 ± 3%; in data set [4] (HEK-293T, read-out: Gαi Emax), 61 ± 3%; in data set [5], under 10%; in data set [9] (read-out: G protein Emax (%)), 60%. Besides, the “Effect of atipamezole on the agonist's effect in SNI mice” value in data set [3] (atipamezole 2 mg/kg, 15 minutes prior) was “not significant reversal; also recorded: partially reversed”. The “Mechanical thresholds / anti-allodynic effect in SNI mice” value in [3] (systemic injection) is “exhibited anti-allodynic effects”. In addition, the “AUC Brain” value in data set [6] (I.P. 10 mg/kg) came out at 51700 ng·min/mL. Further, in [6] (I.P. 10 mg/kg), the “Cmax Brain” value is 742 ng/mL. Also, the half-life was 27.6 min in data set [6] (mouse, brain, ip, I.P. 10 mg/kg, read-out: T ½ Brain (converted)) and 24 min in data set [6] (mouse, plasma, ip, I.P. 10 mg/kg, read-out: T ½ Plasma (converted)). Besides, the AUC in data set [6] (setting [14]) was 3070 ng·h/mL. This compound also yielded a Cmax in data set [6] (setting [14]) of 2710 ng/mL. Further, the “Thermal latencies / anti-hyperalgesic effect in CFA model” value in data set [7] is recorded as “did not”. Further, the Ki in data set [8] was 180 ± 34 nM.
For `Cc1cccc([C@H](C)c2cnc[nH]2)c1C` [dexmedetomidine], in [10], the “Effect on body weight over 48 hours” value is on record as “no effect on body weight”. For the same compound, the “Sedation in rotarod test” value in [11] is “completely sedating; also recorded: complete sedation”. The “Gi signaling at Y431^7.43A” value in data set [12] is listed as “essentially eliminated”. In data set [6] (I.P. 30 μg/kg), the “AUC Brain” value turned out to be 285 ng·min/mL and the “Cmax Brain” value amounted to 8 ng/mL.
`CN1CC[C@]23c4c5ccc(O)c4O[C@H]2[C@@H](O)C=C[C@H]3[C@H]1C5` [morphine]: in [13], the Constipation entry was “induced constipation”.

The term EC50 denotes the concentration needed to bring the measured effect to its halfway point. One may read the Emax as the size of the effect at its maximum, as opposed to the concentration needed. The term AUC denotes concentration integrated over time. Low readings indicate less exposure, high ones more exposure. In general, Cmax refers to the peak of the concentration-time curve. For orientation: Ki means the dissociation constant of the complex between target and ligand, obtained from inhibition or displacement.
